Results from patent publication US20130204033A1, “ANTIPROLIFERATIVE COMPOUNDS, CONJUGATES THEREOF, METHODS THEREFOR, AND USES THEREOF” (Medarex, Inc., priority 2009, published 2013).
Where two headings read alike, the source gives them in different places.

Legend:
Format in all cases: cell-based, human
A549 = assay: 3H thymidine proliferation assay, A549; details: Homo sapiens
Protocol: (§1) This example generally describes the procedures used to assay the antiproliferative activity of compounds of this invention or their conjugates. Human tumor cell lines were obtained from the American Type Culture Collection (ATCC), P.O. Box 1549, Manassas, Va. 20108, USA, and cultured according to instruction from the ATCC. Cells were seeded at 1.0×10^3 or 1.0×10^4 cells/well in 96-well plates for 3 h for ATP assays or ^3H thymidine assays, respectively. 1:3 serial dilutions of free (unconjugated) compounds or their conjugates were added to the wells. Plates were allowed to incubate for 24 to 72 h. The ^3H thymidine plates were pulsed with 1.0 μCi of ^3H-thymidine per well for the last 24 hours of the total incubation period, harvested, and read on a Top Count Scintillation Counter (Packard Instruments, Meriden, Conn.). ATP levels in the ATP plates were measured using the […]-GLO® Luminescent Cell Viability kit following the manufacturer's manual and read on a GLOMAX® 20/20 luminometer (both from Promega, Madison, Wis., USA). The EC50 values—the concentration at which an agent inhibits or reduces cell proliferation by 50% —were determined using PRISM™ software, version 4.0 (GraphPad Software, La Jolla, Calif., USA).
(§2) Using the ^3H thymidine or the ATP luminescence assay, or both, the activities of compounds of this invention were assayed against the following cancer cell lines: HCT-15 (colorectal cancer, multi-drug resistant (MDR)); Hep3B (liver cancer); LNCaP (prostate cancer, androgen receptor positive (AR^+)); MDA-MB-231 (breast cancer, estrogen receptor, progesterone receptor, and Her2 negative (triple negative)); A2058 (melanoma); U-87 MG (glioblastoma); NCI-H460 (NSCLC); A549 (NSCLC); HPAC (pancreatic cancer, primary); PC3 (prostate cancer, AR); BT474 (breast cancer, Her2 highly positive (Her2hi)); SKOV3 (ovarian cancer, Her2hi); 786-O (renal cancer); UO-31 (renal cancer, MDR); NCI-H740 (SCLC); DMS53 (SCLC); SK-BR3 (breast cancer, Her2hi); ZR-75 (breast cancer, estrogen receptor positive); OVCAR3 (ovarian cancer); HL-60 (APL); OVCAR8/Adr (ovarian cancer, MDR); CEM-Cl (ALL); Nomo-1 (AML); RPMI-8226 (MM)); Raji (lymphoma); SW-480 (colorectal cancer, metastatic); SW-620 (colorectal cancer); and H226 (lung cancer). (Not all compounds were assayed against all cell lines.)
(§3) Table 2 provides the data for proliferation assays using the ^3H thymidine method, with an incubation period of 72 h.

PC3 [1] = assay: 3H thymidine proliferation assay, PC3; details: Homo sapiens
Protocol: as §1, §2, §3

SKOV3 = assay: 3H thymidine proliferation assay, SKOV3; details: Homo sapiens
Protocol: as §1, §2, §3

UO-31 = assay: 3H thymidine proliferation assay, UO-31; details: Homo sapiens
Protocol: as §1, §2, §3

H740 = assay: 3H thymidine proliferation assay, H740; details: Homo sapiens
Protocol: as §1, §2, §3

OVCAR3 [2] = assay: 3H thymidine proliferation assay, OVCAR3; details: Homo sapiens
Protocol: as §1, §2, §3

HL-60 = assay: 3H thymidine proliferation assay, HL-60; details: Homo sapiens
Protocol: as §1, §2, §3

Raji [3] = assay: 3H thymidine proliferation assay, Raji; details: Homo sapiens, Raji
Protocol: as §1, §2, §3

HCT-15 = assay: ATP luminescence proliferation assay, HCT-15; details: Homo sapiens
Protocol: as §1, §2
(§4) Table 3 provides the data for the ATP luminescence proliferation assays, with an incubation period of 48, 72, or 96 h, as noted.

U-87 MG = assay: ATP luminescence proliferation assay, U-87 MG; details: Homo sapiens
Protocol: as §1, §2, §4

NCI-H460 = assay: ATP luminescence proliferation assay, NCI-H460; details: Homo sapiens
Protocol: as §1, §2, §4

PC3 [4] = assay: ATP luminescence proliferation assay, PC3; details: Homo sapiens
Protocol: as §1, §2, §4

ZR-75 = assay: ATP luminescence proliferation assay, ZR-75; details: Homo sapiens
Protocol: as §1, §2, §4

OVCAR3 [5] = assay: ATP luminescence proliferation assay, OVCAR3; details: Homo sapiens
Protocol: as §1, §2, §4

CEM-Cl = assay: ATP luminescence proliferation assay, CEM-C1; details: Homo sapiens
Protocol: as §1, §2, §4

RPMI-8226 = assay: ATP luminescence proliferation assay, RPMI-8226; details: Homo sapiens
Protocol: as §1, §2, §4

Raji [6] = assay: ATP luminescence proliferation assay, Raji; details: Homo sapiens
Protocol: as §1, §2, §4

SW-620 = assay: ATP luminescence proliferation assay, SW-620; details: Homo sapiens
Protocol: as §1, §2, §4

A2058 = assay: 3H thymidine proliferation assay, A2058; details: Homo sapiens, A2058; 3H thymidine method, 72 h incubation
Protocol: as §1, §2, §3

SK-BR3 = assay: 3H thymidine proliferation assay, SK-BR3; details: Homo sapiens, SK-BR-3; 3H thymidine method, 72 h incubation
Protocol: as §1, §2, §3

Nc1ccc(C(=O)Nc2ccc3[nH]c(C(=O)N4C[C@@H](CCl)c5c4cc(O)c4ccccc54)cc3c2)cc1 [CBI, reference compound]
EC50 (A549; A549, 3H thymidine method, 72 h incubation, read-out: EC50, A549): 0.072 nM
EC50 (PC3 [1]; PC-3, 3H thymidine method, 72 h incubation, read-out: EC50, PC3): 0.049 nM
EC50 (SKOV3; SK-OV-3, 3H thymidine method, 72 h incubation, read-out: EC50, SKOV3): 0.047 nM
EC50 (UO-31; UO-31, 3H thymidine method, 72 h incubation, read-out: EC50, UO-31): 0.035 nM
EC50 (H740; 3H thymidine method, 72 h incubation, read-out: EC50, H740): 0.098 nM
EC50 (OVCAR3 [2]; OVCAR-3, 3H thymidine method, 72 h incubation, read-out: EC50, OVCAR3): 0.071 nM
EC50 (HL-60; HL-60, 3H thymidine method, 72 h incubation, read-out: EC50, HL-60): 0.027 nM
EC50 (Raji [3]; 3H thymidine method, 72 h incubation, read-out: EC50, Raji): 0.013 nM
EC50 (HCT-15; ATP luminescence, HCT-15, 72 h incubation, read-out: EC50 HCT-15 (72 h)): 3.4 nM
EC50 (U-87 MG; ATP luminescence, 72 h incubation, read-out: EC50 U-87 MG (72 h)): 3.3 nM
EC50 (NCI-H460; ATP luminescence, NCI-H460, 72 h incubation, read-out: EC50 NCI-H460 (72 h)): 0.64 nM
EC50 (PC3 [4]; PC-3, ATP luminescence, PC3, 48 h incubation, read-out: EC50 PC3 (48 h)): 12 nM
EC50 (ZR-75; ZR75, ATP luminescence, ZR-75, 72 h incubation, read-out: EC50 ZR-75 (72 h)): 2.2 nM
EC50 (OVCAR3 [5]; OVCAR-3, ATP luminescence, OVCAR3, 48 h incubation, read-out: EC50 OVCAR3 (48 h)): 4.1 nM
EC50 (CEM-Cl; ATP luminescence, CEM-C1, 72 h incubation, read-out: EC50 CEM-C1 (72 h)): 0.55 nM
EC50 (RPMI-8226; ATP luminescence, RPMI-8226, 72 h incubation, read-out: EC50 RPMI-8226 (72 h)): 4.1 nM
EC50 (Raji [6]; ATP luminescence, 72 h incubation, read-out: EC50 Raji (72 h)): 2.1 nM
EC50 (SW-620; ATP luminescence, SW-620, 96 h incubation, read-out: EC50 SW-620 (96 h)): 0.33 nM

CC[C@H](C)[C@H](NC(=O)[C@H]1CCCCN1C)C(=O)N(C)[C@H](C[C@@H](OC)c1nc(C(=O)NC(Cc2ccccc2)C[C@H](C)C(=O)O)cs1)C(C)C (some centres unmarked) [Compound 15]
EC50 (A2058): 1.6 nM
EC50 (A549; A549, read-out: EC50, A549, 3H thymidine method, 72 h incubation): 2.1 nM
EC50 (PC3 [1]; PC-3, read-out: EC50, PC3, 3H thymidine method, 72 h incubation): 1.7 nM
EC50 (SKOV3; SK-OV-3, read-out: EC50, SKOV3, 3H thymidine method, 72 h incubation): 2.6 nM
EC50 (UO-31; UO-31, read-out: EC50, UO-31, 3H thymidine method, 72 h incubation): 15 nM
EC50 (H740; read-out: EC50, H740, 3H thymidine method, 72 h incubation): 2.3 nM
EC50 (SK-BR3): 17 nM
EC50 (OVCAR3 [2]; OVCAR-3, read-out: EC50, OVCAR3, 3H thymidine method, 72 h incubation): > 100 nM
EC50 (HL-60; HL-60, read-out: EC50, HL-60, 3H thymidine method, 72 h incubation): 0.6 nM
EC50 (Raji [3]; read-out: EC50, Raji, 3H thymidine method, 72 h incubation): 0.47 nM
EC50 (HCT-15; HCT-15, 48 h, read-out: EC50 HCT-15 (48 h), ATP luminescence, HCT-15, 48 h incubation): 40 nM
EC50 (U-87 MG; 72 h, read-out: EC50 U-87 MG (72 h), ATP luminescence, U-87 MG, 72 h incubation): 8.6 nM
EC50 (NCI-H460; NCI-H460, 48 h, read-out: EC50 NCI-H460 (48 h), ATP luminescence, NCI-H460, 48 h incubation): 6.7 nM
EC50 (PC3 [4]; PC-3, 48 h, read-out: EC50 PC3 (48 h), ATP luminescence, PC3, 48 h incubation): > 100 nM
EC50 (ZR-75; ZR75, 48 h, read-out: EC50 ZR-75 (48 h), ATP luminescence, ZR-75, 48 h incubation): 13 nM
EC50 (OVCAR3 [5]; OVCAR-3, 48 h, read-out: EC50 OVCAR3 (48 h), ATP luminescence, OVCAR3, 48 h incubation): > 100 nM
EC50 (CEM-Cl; CEM/C1, 72 h, read-out: EC50 CEM-C1 (72 h), ATP luminescence, CEM-C1, 72 h incubation): 2.6 nM
EC50 (RPMI-8226; RPMI-8226, 72 h, read-out: EC50 RPMI-8226 (72 h), ATP luminescence, RPMI-8226, 72 h incubation): 2.6 nM
EC50 (Raji [6]; 72 h, read-out: EC50 Raji (72 h), ATP luminescence, Raji, 72 h incubation): 2.5 nM
EC50 (SW-620; SW-620, 96 h, read-out: EC50 SW-620 (96 h), ATP luminescence, SW-620, 96 h incubation): 3.7 nM
